{
  "source": "patent US7432260B2",
  "about": "“Pyrimidine compounds” (Cyclacel Limted, priority 2002, dated 2008)",
  "key": {"[1]": {"target": "PLK-1 (Homo sapiens, UniProt P53350)", "sequence (P53350 whole entry)": "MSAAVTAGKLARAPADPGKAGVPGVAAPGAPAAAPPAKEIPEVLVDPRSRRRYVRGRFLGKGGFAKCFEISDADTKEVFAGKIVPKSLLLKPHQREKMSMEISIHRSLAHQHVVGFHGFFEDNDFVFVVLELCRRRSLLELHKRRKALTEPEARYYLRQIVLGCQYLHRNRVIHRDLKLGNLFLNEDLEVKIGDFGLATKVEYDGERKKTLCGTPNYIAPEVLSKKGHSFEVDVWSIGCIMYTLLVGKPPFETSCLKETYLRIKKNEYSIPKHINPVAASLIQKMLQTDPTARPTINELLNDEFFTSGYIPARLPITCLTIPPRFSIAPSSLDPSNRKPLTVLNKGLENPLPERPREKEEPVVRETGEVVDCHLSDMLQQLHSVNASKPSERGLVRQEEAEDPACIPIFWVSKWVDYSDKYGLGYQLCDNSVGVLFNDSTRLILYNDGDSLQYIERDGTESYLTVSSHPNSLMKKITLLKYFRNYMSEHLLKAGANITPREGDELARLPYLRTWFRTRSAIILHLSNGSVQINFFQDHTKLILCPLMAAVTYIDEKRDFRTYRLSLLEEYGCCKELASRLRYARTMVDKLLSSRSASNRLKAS", "experiment": "Kinase assay PLK-1", "format": "biochemical", "procedure": "Kinase assays. […] This was achieved by measurement of incorporation of radioactive phosphate from ATP into appropriate polypeptide substrates. Recombinant protein kinases and kinase complexes were produced or obtained commercially. Assays were performed using 96-well plates and appropriate assay buffers (typically 25 mM β-glycerophosphate, 20 mM MOPS, 5 mM EGTA, 1 mM DTT, 1 mM […], pH 7.4), into which were added 2-4 μg of active enzyme with appropriate substrates. The reactions were initiated by addition of Mg/ATP mix (15 mM MgCl2+100 μM ATP with 30-50 kBq per well of [γ-^32P]-ATP) and mixtures incubated as required at 30° C. Reactions were stopped on ice, followed by filtration through p81 filterplates or GF/C filterplates (Whatman Polyfiltronics, Kent, UK). After washing 3 times with 75 mM aq orthophosphoric acid, plates were dried, scintillant added and incorporated radioactivity measured in a scintillation counter (TopCount, Packard Instruments, Pangbourne, Berks, UK). Compounds for kinase assay were made-up as 10 mM stocks in DMSO and diluted into 10% DMSO inrassay buffer."}, "[2]": {"system": "U2OS", "experiment": "72-h MTT cytotoxicity assay U2OS", "format": "cell-based", "conditions": "Homo sapiens, Table 5, Bone osteosarcoma", "procedure": "(§1) MTT cytotoxicity assay. […] Standard 72-h MTT (thiazolyl blue; 3-[4,5-dimethylthiazol-2-yl]-2,5-diphenyltetrazolium bromide) assays were performed (Haselsberger, K.; Peterson, D. C.; Thomas, D. G.; Darling, J. L. Anti Cancer Drugs 1996, 7, 331-8; Loveland, B. E.; Johns, T. G.; Mackay, I. R.; Vaillant, F.; Wang, Z. X.; Hertzog, P. J. Biochemistry International 1992, 27, 501-10). In short: cells were seeded into 96-well plates according to doubling time and incubated overnight at 37° C. Test compounds were made up in DMSO and a 1/3 dilution series prepared in 100 μL cell media, added to cells (in triplicates) and incubated for 72 ho at 37° C. MTT was made up as a stock of 5 mg/mL in cell media and filter-sterilised. Media was removed from cells followed by a wash with 200 μL PBS.\n(§2) MTT solution was then added at 20 μL per well and incubated in the dark at 37° C. for 4 h. MTT solution was removed and cells again washed with 200 μL PBS. MTT dye was solubilised with 200 μL per well of DMSO with agitation."}, "[3]": {"system": "SKUT-1B", "experiment": "72-h MTT cytotoxicity assay SKUT-1B", "format": "cell-based", "conditions": "Homo sapiens, Skut1B, Table 5, Leiomyosarcoma", "procedure": "as §1, §2"}, "[4]": {"system": "nci-H460", "experiment": "72-h MTT cytotoxicity assay nci-H460", "format": "cell-based", "conditions": "Homo sapiens, NCI-H460, 72 h; Table 5; Lung", "procedure": "as §1, §2"}, "[5]": {"system": "SK-N-MC", "experiment": "72-h MTT cytotoxicity assay SK-N-MC", "format": "cell-based", "conditions": "Homo sapiens, Table 5, Neuroblastoma", "procedure": "as §1, §2"}, "[6]": {"system": "Hacat", "experiment": "72-h MTT cytotoxicity assay Hacat", "format": "cell-based", "conditions": "Homo sapiens, Table 5, Skin keratinocytes", "procedure": "as §1, §2"}, "[7]": {"system": "all transformed cells", "experiment": "72-h MTT cytotoxicity assay, summary over all transformed cells", "format": "cell-based", "conditions": "Homo sapiens", "procedure": "as §1, §2"}, "[8]": {"system": "IMR-90", "experiment": "72-h MTT cytotoxicity assay IMR-90", "format": "cell-based", "conditions": "Homo sapiens, IMR-90, 72 h; Table 5; Foetal lung fibroblast (non-transformed)", "procedure": "as §1, §2"}, "[9]": {"target": "T1, ARK-2: aurora kinase-2 (aurora A kinase) (Homo sapiens, UniProt O14965)", "T1 construct": "purchased", "T1 sequence (O14965 whole entry)": "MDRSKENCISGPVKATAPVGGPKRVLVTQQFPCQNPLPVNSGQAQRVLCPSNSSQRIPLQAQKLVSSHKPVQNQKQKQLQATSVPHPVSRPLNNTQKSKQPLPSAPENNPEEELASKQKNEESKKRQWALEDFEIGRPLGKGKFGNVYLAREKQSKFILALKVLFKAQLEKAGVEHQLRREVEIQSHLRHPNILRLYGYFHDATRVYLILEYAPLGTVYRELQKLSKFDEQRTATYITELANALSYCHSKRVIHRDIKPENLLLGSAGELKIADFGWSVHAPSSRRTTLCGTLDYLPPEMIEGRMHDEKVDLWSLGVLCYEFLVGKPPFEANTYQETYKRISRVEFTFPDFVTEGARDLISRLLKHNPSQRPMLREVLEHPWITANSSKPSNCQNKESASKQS", "experiment": "Aurora-A (human) kinase assay", "format": "biochemical", "conditions": "Table 2; 15 μM ATP; read-out: Kinase Inhibition IC50 ARK-2", "procedure": "Aurora-A (human) kinase assay. This was achieved by measurement of incorporation of radioactive phosphate from ATP into Kemptide substrate (LRRASLG), upon phosphorylation by commercially obtained aurora-A kinase. Assays were performed using 96-well plates and appropriate assay buffers (8 mM MOPS, 0.2 mM EDTA, pH 7.0), into which were added 5-10 ng of active enzyme with 200 μM substrate (Kemptide). […] Reactions were stopped by addition of 3% phosphoric acid, followed by filtration through p81 filterplates (Whatman Polyfiltronics, Kent, UK). After washing 5 times with 75 mM aq orthophosphoric acid and once in methanol, plates were dried, scintillant added and incorporated radioactivity measured in a scintillation counter (TopCount, Packard Instruments, Pangbourne, Berks, UK). Compounds for kinase assay were made up as 10 mM stocks in DMSO and diluted into 10% DMSO in assay buffer."}, "[10]": {"conditions": "Table 2, read-out: Kinase Inhibition IC50 PLK-1"}, "[11]": {"conditions": "Table 3 selectivity panel, read-out: Kinase specificity IC50 PLK1"}, "[12]": {"conditions": "Table 5, average over transformed cell lines, read-out: 72-h MTT IC50 Average (all transformed cells)"}, "[13]": {"conditions": "Table 5, median over transformed cell lines, read-out: 72-h MTT IC50 Median (all transformed cells)"}},
  "note": "Like-named read-outs stand apart in the source and are kept apart here.",
  "data": [
    {"smiles": "CCNc1nc(C)c(-c2ccnc(Nc3ccc(N4CCOCC4)cc3)n2)s1", "note": "[Compound 4, [4-(2-Ethylamino-4-methyl-thiazol-5-yl)-pyrimidin-2-yl]-(4-morpholin-4-yl-phenyl)-amine]", "values": [
      {"measurement": "IC50", "setting": "[1]; [10]", "value": "> 100", "unit": "µM"}
    ]},
    {"smiles": "Cc1nc(NC(=O)[C@H](N)[C@@H](C)O)sc1-c1ccnc(Nc2cccc([N+](=O)[O-])c2)n1", "note": "[Compound 15, (2R,3R)-2-Amino-3-hydroxy-N-{4-methyl-5-[2-(3-nitro-phenylamino)-pyrimidin-4-yl]-thiazol-2-yl}-butyramide]", "values": [
      {"measurement": "IC50", "setting": "[1]; [10]", "value": "> 150", "unit": "µM"},
      {"measurement": "IC50", "setting": "[1]; [11]", "value": "> 100", "unit": "µM"},
      {"measurement": "IC50", "setting": "[2]", "value": 1.02, "unit": "µM"},
      {"measurement": "IC50", "setting": "[3]", "value": 0.2, "unit": "µM"},
      {"measurement": "IC50", "setting": "[4]", "value": 1.2, "unit": "µM"},
      {"measurement": "IC50", "setting": "[5]", "value": 0.5, "unit": "µM"},
      {"measurement": "IC50", "setting": "[6]", "value": 1.5, "unit": "µM"},
      {"measurement": "IC50", "setting": "[7]; [12]", "value": 1.2, "unit": "µM"},
      {"measurement": "IC50", "setting": "[7]; [13]", "value": 0.9, "unit": "µM"},
      {"measurement": "IC50", "setting": "[8]", "value": 2.5, "unit": "µM"}
    ]},
    {"smiles": "CNc1nc(C)c(-c2ccnc(Nc3ccc(N4CCN(Cc5ccccc5)CC4)cc3)n2)s1", "note": "[Compound 11, [4-(4-Benzyl-piperazin-1-yl)-phenyl]-[4-(4-methyl-2-methylamino-thiazol-5-yl)-pyrimidin-2-yl]-amine]", "values": [
      {"measurement": "IC50", "setting": "[1]; [10]", "value": 19, "unit": "µM"},
      {"measurement": "IC50", "setting": "[1]; [11]", "value": 19, "unit": "µM"},
      {"measurement": "IC50", "setting": "[2]", "value": 2.3, "unit": "µM"},
      {"measurement": "IC50", "setting": "[3]", "value": 0.3, "unit": "µM"},
      {"measurement": "IC50", "setting": "[4]", "value": 0.7, "unit": "µM"},
      {"measurement": "IC50", "setting": "[5]", "value": 0.6, "unit": "µM"},
      {"measurement": "IC50", "setting": "[6]", "value": 1, "unit": "µM"},
      {"measurement": "IC50", "setting": "[7]; [12]", "value": 1.6, "unit": "µM"},
      {"measurement": "IC50", "setting": "[7]; [13]", "value": 1.1, "unit": "µM"},
      {"measurement": "IC50", "setting": "[8]", "value": 31, "unit": "µM"}
    ]},
    {"smiles": "CNc1nc(C)c(-c2ccnc(Nc3ccc(N4CCOCC4)cc3)n2)s1", "note": "[Compound 3, [4-(2-N-Methylamino-4-methyl-thiazol-5-yl)-pyrimidin-2-yl]-(4-morpholinophenyl)-amine]", "values": [
      {"measurement": "IC50", "setting": "[1]; [10]", "value": "> 150", "unit": "µM"},
      {"measurement": "IC50", "setting": "[1]; [11]", "value": "> 100", "unit": "µM"}
    ]},
    {"smiles": "Cc1nc(N)sc1-c1ccnc(Nc2ccc(N3CCOCC3)cc2)n1", "note": "[Compound 1, [4-(2-Amino-4-methyl-thiazol-5-yl)-pyrimidin-2-yl]-(4-morpholin-4-yl-phenyl)-amine]", "values": [
      {"measurement": "IC50", "setting": "[2]", "value": 2.1, "unit": "µM"},
      {"measurement": "IC50", "setting": "[4]", "value": 0.2, "unit": "µM"},
      {"measurement": "IC50", "setting": "[5]", "value": 0.3, "unit": "µM"},
      {"measurement": "IC50", "setting": "[6]", "value": 1.1, "unit": "µM"},
      {"measurement": "IC50", "setting": "[7]; [12]", "value": 1.1, "unit": "µM"},
      {"measurement": "IC50", "setting": "[7]; [13]", "value": 1, "unit": "µM"},
      {"measurement": "IC50", "setting": "[8]", "value": "> 5", "unit": "µM"}
    ]},
    {"smiles": "CC[C@@H](N)C(=O)Nc1nc(C)c(-c2ccnc(Nc3cccc([N+](=O)[O-])c3)n2)s1", "note": "[Compound 16, (2R)-2-Amino-N-{4-methyl-5-[2-(3-nitro-phenylamino)-pyrimidin-4-yl]-thiazol-2-yl}-butyramide]", "values": [
      {"measurement": "IC50", "setting": "[1]; [10]", "value": "> 150", "unit": "µM"},
      {"measurement": "IC50", "setting": "[1]; [11]", "value": "> 100", "unit": "µM"},
      {"measurement": "IC50", "setting": "[9]", "value": 2.8, "unit": "µM"},
      {"measurement": "IC50", "setting": "[2]", "value": 0.48, "unit": "µM"},
      {"measurement": "IC50", "setting": "[3]", "value": 0.1, "unit": "µM"},
      {"measurement": "IC50", "setting": "[4]", "value": 0.3, "unit": "µM"},
      {"measurement": "IC50", "setting": "[5]", "value": 0.4, "unit": "µM"},
      {"measurement": "IC50", "setting": "[6]", "value": 1.1, "unit": "µM"},
      {"measurement": "IC50", "setting": "[7]; [12]", "value": 0.6, "unit": "µM"},
      {"measurement": "IC50", "setting": "[7]; [13]", "value": 0.4, "unit": "µM"},
      {"measurement": "IC50", "setting": "[8]", "value": 1.7, "unit": "µM"}
    ]}
  ]
}
